Each block holds one molecule with its values, some of them ahead of it.
Tested on: 379773-124-R-J2-PDC complex spheroids, viability % test/control
Assay: Anticancer human tumor 379773-124-R-J2-PDC patient-derived endometrial carcinoma cell line growth inhibition [CLK]
Details: for IC50: curve of first compound; for viability, T/C: stronger effect = lower value
Summary of the method: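 Multi-cell-type spheroids combined patient-derived tumor cells with HUVEC endothelial cells and human mesenchymal stem cells. Paired agents were dosed in half-log steps down from about clinical Cmax, or from 10 microM where Cmax was unknown.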

[1] = second compound 0.0316 µM, first compound 0.0316 µM
[2] = second compound 0.0316 µM, first compound 0.1 µM
[3] = second compound 0.0316 µM, first compound 0.316 µM
[4] = second compound 0.0316 µM, first compound 1 µM
[5] = second compound 0.1 µM, first compound 0.0316 µM
[6] = second compound 0.1 µM, first compound 0.1 µM
[7] = second compound 0.1 µM, first compound 0.316 µM
[8] = second compound 0.1 µM, first compound 1 µM
[9] = second compound 0.316 µM, first compound 0.0316 µM
[10] = second compound 0.316 µM, first compound 0.1 µM
[11] = second compound 0.316 µM, first compound 0.316 µM
[12] = second compound 0.316 µM, first compound 1 µM
[13] = second compound 1 µM, first compound 0.0316 µM
[14] = second compound 1 µM, first compound 0.1 µM
[15] = second compound 1 µM, first compound 0.316 µM
[16] = second compound 1 µM, first compound 1 µM
[17] = second compound 3.16 µM, first compound 0.0316 µM
[18] = second compound 3.16 µM, first compound 0.1 µM
[19] = second compound 3.16 µM, first compound 0.316 µM
[20] = second compound 3.16 µM, first compound 1 µM
[21] = second compound 10 µM, first compound 0.0316 µM
[22] = second compound 10 µM, first compound 0.1 µM
[23] = second compound 10 µM, first compound 0.316 µM
[24] = second compound 10 µM, first compound 1 µM
[25] = second compound 0.0316 µM, first compound 0.00316 µM
[26] = second compound 0.0316 µM, first compound 0.01 µM
[27] = second compound 0.1 µM, first compound 0.00316 µM
[28] = second compound 0.1 µM, first compound 0.01 µM
[29] = second compound 0.316 µM, first compound 0.00316 µM
[30] = second compound 0.316 µM, first compound 0.01 µM
[31] = second compound 1 µM, first compound 0.00316 µM
[32] = second compound 1 µM, first compound 0.01 µM
[33] = second compound 3.16 µM, first compound 0.00316 µM
[34] = second compound 3.16 µM, first compound 0.01 µM
[35] = second compound 10 µM, first compound 0.00316 µM
[36] = second compound 10 µM, first compound 0.01 µM
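Note: compound exposure lasted seven days before the viability readout.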
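Throughout, for viability, T/C: 100% = DMSO vehicle control wells.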

IC50 (second compound 0.0316 µM): > 10000 nM | IC50 (second compound 0.1 µM): < 31.6 nM | IC50 (second compound 0.316 µM): < 31.6 nM | IC50 (second compound 1 µM): < 31.6 nM | IC50 (second compound 3.16 µM): < 31.6 nM | IC50 (second compound 10 µM): < 31.6 nM
SMILES: CC(Nc1ccc2c(c1)OCCn1cc(N3C(=O)OCC3C(F)F)nc1-2)C(N)=O (stereo unspecified) + CNC(=O)c1ccc(Nc2nc(OC3CCCC3)c3c(-c4ccc5nc(C)oc5c4)c[nH]c3n2)c(OC)c1
viability, T/C [1]: 74.7% | viability, T/C [2]: 72.8% | viability, T/C [3]: 78.1% | viability, T/C [4]: 73.9% | viability, T/C (second compound 0.0316 µM, first compound 3.16 µM): 76.3% | viability, T/C (second compound 0.0316 µM, first compound 10 µM): 62.8% | viability, T/C [5]: 38.7% | viability, T/C [6]: 33.6% | viability, T/C [7]: 21.3% | viability, T/C [8]: 23.2% | viability, T/C (second compound 0.1 µM, first compound 3.16 µM): 24.6% | viability, T/C (second compound 0.1 µM, first compound 10 µM): 15.3% | viability, T/C [9]: 40.3% | viability, T/C [10]: 30.3% | viability, T/C [11]: 29.1% | viability, T/C [12]: 29.2% | viability, T/C (second compound 0.316 µM, first compound 3.16 µM): 19.1% | viability, T/C (second compound 0.316 µM, first compound 10 µM): 16.7% | viability, T/C [13]: 35.5% | viability, T/C [14]: 28.9% | viability, T/C [15]: 25.1% | viability, T/C [16]: 22.4% | viability, T/C (second compound 1 µM, first compound 3.16 µM): 19.9% | viability, T/C (second compound 1 µM, first compound 10 µM): 9.04% | viability, T/C [17]: 32.5% | viability, T/C [18]: 30% | viability, T/C [19]: 23% | viability, T/C [20]: 22.7% | viability, T/C (second compound 3.16 µM, first compound 3.16 µM): 18.3% | viability, T/C (second compound 3.16 µM, first compound 10 µM): 11.7% | viability, T/C [21]: 32.5% | viability, T/C [22]: 28.6% | viability, T/C [23]: 23.5% | viability, T/C [24]: 18.6% | viability, T/C (second compound 10 µM, first compound 3.16 µM): 22.3% | viability, T/C (second compound 10 µM, first compound 10 µM): 14%

IC50 (second compound 0.0316 µM): > 1000 nM | IC50 (second compound 0.1 µM): < 3.16 nM | IC50 (second compound 0.316 µM): < 3.16 nM | IC50 (second compound 1 µM): < 3.16 nM | IC50 (second compound 3.16 µM): < 3.16 nM | IC50 (second compound 10 µM): < 3.16 nM
SMILES: CCN1CCN(Cc2ccc(Nc3ncc(F)c(-c4cc(F)c5nc(C)n(C(C)C)c5c4)n3)nc2)CC1 + CNC(=O)c1ccc(Nc2nc(OC3CCCC3)c3c(-c4ccc5nc(C)oc5c4)c[nH]c3n2)c(OC)c1
viability, T/C [25]: 74.5% | viability, T/C [26]: 77.5% | viability, T/C [1]: 75.4% | viability, T/C [2]: 76.6% | viability, T/C [3]: 87.1% | viability, T/C [4]: 81.5% | viability, T/C [27]: 32.6% | viability, T/C [28]: 48.7% | viability, T/C [5]: 40.5% | viability, T/C [6]: 31.1% | viability, T/C [7]: 42.7% | viability, T/C [8]: 37.2% | viability, T/C [29]: 31.9% | viability, T/C [30]: 41.5% | viability, T/C [9]: 40% | viability, T/C [10]: 38% | viability, T/C [11]: 44.6% | viability, T/C [12]: 31.5% | viability, T/C [31]: 43.2% | viability, T/C [32]: 30.3% | viability, T/C [13]: 31.3% | viability, T/C [14]: 30% | viability, T/C [15]: 36% | viability, T/C [16]: 34.1% | viability, T/C [33]: 33.8% | viability, T/C [34]: 31.4% | viability, T/C [17]: 34.2% | viability, T/C [18]: 31.5% | viability, T/C [19]: 44.9% | viability, T/C [20]: 28.5% | viability, T/C [35]: 32.5% | viability, T/C [36]: 24.3% | viability, T/C [21]: 35.7% | viability, T/C [22]: 30.9% | viability, T/C [23]: 37.3% | viability, T/C [24]: 33.2%

IC50 (second compound 0.0316 µM): 59.5 nM | IC50 (second compound 0.1 µM): < 3.16 nM | IC50 (second compound 0.316 µM): < 3.16 nM | IC50 (second compound 1 µM): < 3.16 nM | IC50 (second compound 3.16 µM): < 3.16 nM | IC50 (second compound 10 µM): < 3.16 nM
SMILES: COc1c(OCCCN2CCOCC2)ccc2c3n(c(=NC(=O)c4cnc(N)nc4)nc12)CCN3 + CNC(=O)c1ccc(Nc2nc(OC3CCCC3)c3c(-c4ccc5nc(C)oc5c4)c[nH]c3n2)c(OC)c1
viability, T/C [25]: 81.8% | viability, T/C [26]: 85.6% | viability, T/C [1]: 65% | viability, T/C [2]: 37.5% | viability, T/C [3]: 6.4% | viability, T/C [4]: 2.99% | viability, T/C [27]: 31.6% | viability, T/C [28]: 29% | viability, T/C [5]: 25.3% | viability, T/C [6]: 14.5% | viability, T/C [7]: 4.25% | viability, T/C [8]: 1.91% | viability, T/C [29]: 34.9% | viability, T/C [30]: 32.7% | viability, T/C [9]: 19.5% | viability, T/C [10]: 10.1% | viability, T/C [11]: 3.08% | viability, T/C [12]: 1.56% | viability, T/C [31]: 38.9% | viability, T/C [32]: 25.7% | viability, T/C [13]: 17.8% | viability, T/C [14]: 7.48% | viability, T/C [15]: 1.73% | viability, T/C [16]: 1.03% | viability, T/C [33]: 28.3% | viability, T/C [34]: 24.1% | viability, T/C [17]: 15.3% | viability, T/C [18]: 8.87% | viability, T/C [19]: 2.29% | viability, T/C [20]: 0.59% | viability, T/C [35]: 22.5% | viability, T/C [36]: 21.5% | viability, T/C [21]: 16.8% | viability, T/C [22]: 7.19% | viability, T/C [23]: 1.54% | viability, T/C [24]: 0.67%
